Structures can show the parent of a compound that is named as a salt.
molecular target: MTH1 (Homo sapiens, UniProt P36639); test: MTH1 enzymatic assay and IC50 value determination (malachite green); type: biochemical; conditions: MTH1 4.8 nM, dGTP 100 μM, 15 minutes at 22° C.; group: between 2 μM and 10 μM
In short: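 Malachite green detection of Pi after coupling dGTP hydrolysis to excess E. coli pyrophosphatase; 4.8 nM MTH1, 100 μM dGTP in Tris-acetate buffer with Mg2+ and DTT, 1% DMSO, 15 min at 22 °C. 12-point 1:3 compound series; absorbance at 630 nm; IC50 by four-parameter nonlinear regression.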

| IC50 [nM] | SMILES |
| --- | --- |
| 2000 to 10000 | Nc1nc(NC2CCOCC2)cc(-c2ccc(Cl)cc2)n1 [Example 15, 6-(4-chlorophenyl)-4-N-(oxan-4-yl)pyrimidine-2,4-diamine] |
| 2000 to 10000 | Cc1cccc(-c2cc(NC3CCN(C(=O)OC(C)(C)C)CC3)nc(N)n2)c1C [Example 237, tert-Butyl 4-((2-amino-6-(2,3-dimethylphenyl)pyrimidin-4-yl)amino)piperidine-1-carboxylate] |

same assay, conditions: MTH1 4.8 nM, dGTP 100 μM, 15 minutes at 22° C.; group: less than 200 nM

| SMILES | IC50 [nM] |
| --- | --- |
| CNc1cc(-c2cccc(CO)c2)nc(N)n1 [Example 101, {3-[2-amino-6-(methylamino)pyrimidin-4-yl]phenyl}methanol] | < 200 |
| CNC(=O)c1ccc(-c2cc(NC)nc(N)n2)cc1 [Example 110, 4-[2-amino-6-(methylamino)pyrimidin-4-yl]-N-methylbenzamide] | < 200 |
| CNc1cc(-c2cccc3[nH]ccc23)nc(N)n1 [Example 174, 6-(1H-indol-4-yl)-4-N-methylpyrimidine-2,4-diamine] | < 200 |
| CNc1cc(-c2ccc(F)c(Cl)c2)nc(N)n1 [Example 80, 6-(3-chloro-4-fluorophenyl)-4-N-methylpyrimidine-2,4-diamine] | < 200 |
| CCCNc1cc(-c2ccccc2)nc(N)n1 [Example 4, 6-phenyl-4-N-propylpyrimidine-2,4-diamine] | < 200 |
| CNc1cc(-c2cc(Cl)c3c(c2)OCO3)nc(N)n1 [Example 97, 6-(7-chloro-2H-1,3-benzodioxol-5-yl)-4-N-methylpyrimidine-2,4-diamine] | < 200 |
| CNc1cc(-c2ccccc2C(F)(F)F)nc(N)n1 [Example 89, 4-N-methyl-6-[2-(trifluoromethyl)phenyl]pyrimidine-2,4-diamine] | < 200 |
| CNc1cc(-c2cccc(C(=O)Nc3ccc(C)cc3)c2)nc(N)n1 [Example 115, 3-[2-amino-6-(methylamino)pyrimidin-4-yl]-N-(4-methylphenyl)benzamide] | < 200 |

Next, values leading:

| IC50 [nM] | SMILES |
| --- | --- |
| < 200 | Cc1ccc(Cl)cc1-c1cc(NC2CC2)nc(N)n1 [Example 219, 6-(5-chloro-2-methylphenyl)-4-N-cyclopropylpyrimidine-2,4-diamine] |
| < 200 | Cc1ccc(Cl)cc1-c1cc(NCCc2ccc(Cl)cc2)nc(N)n1 [Example 222, 6-(5-chloro-2-methylphenyl)-4-N-[2-(4-chlorophenyl)ethyl]pyrimidine-2,4-diamine] |
| < 200 | CNc1cc(-c2ccc(OCC3CCNCC3)c(COC)c2)nc(N)n1 [Example 257, 6-[3-(methoxymethyl)-4-(piperidin-4-ylmethoxy)phenyl]-4-N-methylpyrimidine-2,4-diamine hydrochloride] |
| < 200 | Cc1cccc(-c2cc(NCc3ccc(N(C)C)cc3)nc(N)n2)c1C [Example 346, 4-N-{[4-(Dimethylamino)phenyl]methyl}-6-(2,3-dimethylphenyl)pyrimidine-2,4-diamine] |
| < 200 | CNc1cc(-c2cc(Cl)c(OC)cc2Cl)nc(N)n1 [Example 192, 6-(2,5-dichloro-4-methoxyphenyl)-4-N-methylpyrimidine-2,4-diamine] |
| < 200 | Cc1cccc(-c2cc(NCCCNS(=O)(=O)c3ccccc3)nc(N)n2)c1C [Example 376, N-(3-{[2-Amino-6-(2,3-dimethylphenyl)pyrimidin-4-yl]amino}propyl)benzenesulfonamide] |
| < 200 | Cc1ncsc1CCNc1cc(-c2cccc(Cl)c2Cl)nc(N)n1 [Example 405, 6-(2,3-dichlorophenyl)-4-N-[2-(4-methyl-1,3-thiazol-5-yl)ethyl]pyrimidine-2,4-diamine] |
| < 200 | Nc1nc(NC2CC2)cc(-c2cccc3ncccc23)n1 [Example 232, 4-N-cyclopropyl-6-(quinolin-5-yl)pyrimidine-2,4-diamine] |
| < 200 | Cc1cccc(-c2cc(NCC3CCCN3C(=O)OC(C)(C)C)nc(N)n2)c1C (stereo not shown) [Example 282, tert-butyl 2-({[2-amino-6-(2,3-dimethylphenyl)pyrimidin-4-yl]amino}methyl)-pyrrolidine-1-carboxylate] |

From patent publication US10174029B2, “Pyrimidine-2,4-diamine derivatives for treatment of cancer” (THOMAS HELLEDAYS STIFTELSE FOR MEDICINSK FORSKNING, priority 2012, dated 2019)
